# Measured values taken from US11952368B2, “FAPI dimer compound, FAPI dimer-based positron emission tomography (PET) imaging agent for tumor diagnosis, and preparation method and use thereof” (XIAMEN UNIVERSITY, priority 2021, dated 2024).
# Columns and labels:
# [1] = system: HCC-PDX-1; assay: PET imaging in HCC-PDX-1 model; format: in vivo, mouse
# Experimental: (§1) The PET imaging and biodistribution studies were conducted in HCC-PDX1 and HCC-PDX2 mouse models. The histological verification was first conducted, where the immunohistochemical staining and H&E staining were conducted for FAP and Ki67, a tumor tissue was digested for protein extraction, and the expression of FAP was detected by Western Blot. Verification results were shown in FIG. 6A-B, where the immunohistochemical staining result was shown in FIG. 6A and the Western Blot result was shown in FIG. 6B. […] Therefore, the models can be used for further mouse experiments.
# (§2) The products of ^68Ga-2PEG(3)-FAPI-dimer and ^68Ga-FAPI-46 were each diluted to a concentration of 74 MBq/mL. 7.4 MBq of ^68Ga-2PEG(3)-FAPI-dimer or 7.4 MBq of ^68Ga-FAPI-46 was injected into the HCC-PDX model through the tail vein (3 parallel experiments per group). All PET scans were conducted with an Inveon small animal PET scanner (Siemens Preclinical Solution, USA). The dynamic PET imaging was conducted with a scan duration of 60 min and reconstructed frames of 10×30 s, 10×60 s, 10×120 s, and 9×160 s. The 10 min static PET imaging was conducted with acquisition time points of 0.5 h, 1 h, 2 h, and 4 h after injection. For the blocking experiment, 30 nmol of unlabeled FAPI-46 was added to a ^68Ga-2PEG(3)-FAPI-dimer solution (with NS as a solvent) before injection. An image was iteratively reconstructed with 3D OPMAP 256.pPetRcn (Siemens) and converted into a % ID/g image. Region of interests (ROIs) in the tumor, liver, heart, kidney, and muscle were calculated on PET images to quantify radioactive signals.
# [2] = system: HCC-PDX-2; assay: PET imaging in HCC-PDX-2 model; format: in vivo, mouse; conditions: HCC-PDX-2, 7.4 MBq via tail vein
# Experimental: as §1
# as §2, with “For the blocking experiment, 30 nmol of unlabeled FAPI-46 was added to a ^68Ga-2PEG(3)-FAPI-dimer solution (with NS as a solvent) before injection. An image was iteratively reconstructed with 3D OPMAP 256.pPetRcn (Siemens) and converted into a % ID/g image.” left out
# [3] = system: HCC-PDX-1; assay: Biodistribution in HCC-PDX-1 mice (gamma counter); format: in vivo, mouse; conditions: for tumor uptake: HCC-PDX-1, 1.48 MBq
# Experimental: HCC-PDX-1 mice were injected with 1.48 MBq of ^68Ga-2PEG(3)-FAPI-dimer, and 1 h and 4 h after the injection (3 parallel experiments per time point), major organs and tumors were isolated, weighed, and analyzed. The ^68Ga-FAPI-46 group (1.48 MBq) and blocking group (1.48 MBq ^68Ga-2PEG(3)-FAPI-dimer+30 nmol unlabeled FAPI-46) were compared in terms of biodistribution.
# [4] = Distribution, dosimetry and safety in healthy volunteers (PET/CT, OLINDA/EXM); format: in vivo, human
# Experimental: This experiment was approved by the Clinical Research Ethics Committee of the First Affiliated Hospital of Xiamen University, and all subjects signed a written informed consent form. A dose of ^68Ga-2PEG(3)-FAPI-dimer for intravenous injection (1.8 MBq to 2.2 MBq [0.05 mCi to 0.06 mCi]/kg) was calculated according to a body weight of a subject. Data were acquired using a hybrid PET/CT scanner (Discovery MI, GE Healthcare, Milwaukee, WI, USA) at 10 min, 30 min, 60 min, and 180 min after intravenous injection. A maximum standard uptake value (SUVmax) was automatically calculated with ROIs drawn on a transaxial image. Safety data, including vital signs (blood pressure, pulse, respiratory rate, and body temperature) and adverse events, were acquired 4 h before and after the ^68Ga-2PEG(3)-FAPI-dimer was injected. […] The time-activity curve fitting and subsequent dose calculation were conducted using OLINDA/EXM v.1.1.
# [5] = three healthy volunteers, i.v., OLINDA/EXM
smiles,measurement,setting,value
CN(CCCN1CCN(C(=O)COCCOCCOCCNC(=O)CCC(=O)N[C@@H](CCCCNC(=O)CN2CCN(CC(=O)[O-])CCN(CC(=O)[O-])CCN(CC(=O)[O-])CC2)C(=O)NCCOCCOCCOCC(=O)N2CCN(CCCN(C)c3ccc4nccc(C(=O)NCC(=O)N5CC(F)(F)C[C@H]5C#N)c4c3)CC2)CC1)c1ccc2nccc(C(=O)NCC(=O)N3CC(F)(F)C[C@H]3C#N)c2c1.[68Ga+3] [^68Ga-2PEG(3)-FAPI-dimer],uptake in normal organs,"[1]; HCC-PDX-1, 7.4 MBq via tail vein, PET",low and decline rapidly
same,uptake and residence in tumor tissue compared with ^68Ga-FAPI-46,"[1]; HCC-PDX-1, 7.4 MBq via tail vein, PET 0.5 h, 1 h, 2 h, 4 h",better than
same,blocking of tumor uptake by unlabeled FAPI-46,"[1]; two liver cancer PDX models (HCC-PDX-1 and HCC-PDX-2), 30 nmol unlabeled FAPI-46",can be blocked by unlabeled FAPI-46
same,uptake in normal organs,[2]; PET,low and decline rapidly
same,uptake and residence in tumor tissue compared with ^68Ga-FAPI-46,"[2]; PET 0.5 h, 1 h, 2 h, 4 h",better than
same,tumor uptake in the blocking group,"[3]; HCC-PDX-1, 1.48 MBq + 30 nmol unlabeled FAPI-46, 1 h after injection",1.07±0.19 % ID/g
same,tumor uptake in the blocking group,"[3]; HCC-PDX-1, 1.48 MBq + 30 nmol unlabeled FAPI-46, 4 h after injection",1.14±0.15 % ID/g
same,tumor uptake,[3]; 1 h after injection,8.97±0.32 % ID/g
same,tumor uptake,[3]; 4 h after injection,7.61±0.64 % ID/g
same,"discomfort symptoms after injection (vital signs, adverse events)","[4]; i.v. 1.8 MBq to 2.2 MBq/kg, 4 h before and after injection",did not undergo any discomfort symptoms
same,"Average value, Adrenal gland (dosimetry)",[4]; [5],7.98E−05 mSv/MBq
same,"Average value, Ascending colon wall (dosimetry)",[4]; [5],2.79E−05 mSv/MBq
same,"Average value, Bladder wall (dosimetry)",[4]; [5],1.04E−03 mSv/MBq
same,"Average value, Brain (dosimetry)",[4]; [5],3.16E−05 mSv/MBq
same,"Average value, Breast (dosimetry)",[4]; [5],6.36E−05 mSv/MBq
same,"Average value, Descending colon wall (dosimetry)",[4]; [5],9.22E−04 mSv/MBq
same,"Average value, Effective dose",[4]; [5],1.19E−02 mSv/MBq
same,"Average value, Effective dose equivalent",[4]; [5],1.69E−02 mSv/MBq
same,"Average value, Kidney (dosimetry)",[4]; [5],1.01E−04 mSv/MBq
same,"Average value, Liver (dosimetry)",[4]; [5],1.65E−03 mSv/MBq
same,"Average value, Lung (dosimetry)",[4]; [5],1.36E−03 mSv/MBq
same,"Average value, Muscle (dosimetry)",[4]; [5],4.19E−05 mSv/MBq
same,"Average value, Osteoblast (dosimetry)",[4]; [5],6.47E−05 mSv/MBq
same,"Average value, Ovary (dosimetry)",[4]; [5],5.94E−04 mSv/MBq
same,"Average value, Pancreas (dosimetry)",[4]; [5],7.61E−04 mSv/MBq
same,"Average value, Red bone marrow (dosimetry)",[4]; [5],1.12E−03 mSv/MBq
same,"Average value, Skin (dosimetry)",[4]; [5],1.22E−05 mSv/MBq
same,"Average value, Small intestine (dosimetry)",[4]; [5],5.18E−05 mSv/MBq
same,"Average value, Spleen (dosimetry)",[4]; [5],1.58E−04 mSv/MBq
same,"Average value, Stomach wall (dosimetry)",[4]; [5],7.12E−04 mSv/MBq
same,"Average value, Thymus (dosimetry)",[4]; [5],9.64E−06 mSv/MBq
same,"Average value, Thyroid (dosimetry)",[4]; [5],3.11E−03 mSv/MBq
same,"Average value, Uterus (dosimetry)",[4]; [5],1.27E−05 mSv/MBq
